In US20090270474A1, “Therapeutic Agent for Keratoconjunctival Disorder” (priority 2005, published 2009):

System: corneal disorder models
Assay: Test for therapeutic effect on corneal disorder (exorbital lacrimal gland removal model, fluorescein staining score)
Type: in vivo, male SD rats
Protocol: Using male SD rats, corneal disorder models were produced in accordance with the method of Fujihara et al. (Invest. Opthalmol. Vis. Sci. 42 (1): 96-100 (2001)). After the production of the corneal disorder models, the corneal disorder score was evaluated in accordance with the method of Murakami et al. (Journal of the eye 21 (1): 87-90 (2004)), and the improvement ratio of corneal disorder after instillation of eprosartan mesylate (hereinafter referred to as “Compound A”) was obtained.
As test animals, male SD rats were used, and systemic anesthesia was given to the rats by administration of Nembutal. Subsequently the exorbital lacrimal gland was removed and a corneal disorder was induced over a period of 2 months.
Then, Compound A was administered as follows.
A phosphate-buffered saline solution (PBS solution) containing Compound A (0.1%) was instilled into both eyes 6 times a day for 14 days (instilled amount: 5 μL/dose) (one group consisting of 4 animals, 8 eyes).
In a control group, PBS solution was instilled into both eyes 6 times a day for 14 days (instilled amount: 5 μL/dose) (one group consisting of 4 animals, 8 eyes).
Fourteen days after the start of instillation, the damaged parts of the cornea were stained with fluorescein. For each of the upper, middle and lower parts of the cornea, the degree of fluorescein staining was evaluated by scoring according to the criteria shown below and the improvement ratio of corneal disorder was calculated from the mean value of the total scores for each of the above-mentioned parts.
Also for normal eyes, the mean value of the total scores for each of the above-mentioned parts was obtained. […]
By taking the mean value of the total scores for the control group (PBS solution) as a standard (improvement ratio: 0%) and according to the calculation formula shown below, the improvement ratio in the Compound A instillation group was calculated, which is shown in Table 1. […]

**Q.** What does the source list for `CCCCc1ncc(/C=C(\Cc2cccs2)C(=O)O)n1Cc1ccc(C(=O)O)cc1` [Compound A, (E)-a-[[2-n-butyl-1-[(4-carboxyphenyl)methyl]-1H-imidazol-5-yl]methylene]-2-thiophenepropionic acid monomethanesulfonate]?
**A.** Improvement ratio (%) (0.1% in PBS instilled 6 times a day for 14 days, {(control)-(Compound A)}/((control)-(normal eye))x100, control = 0%): 84.8%; Improvement of corneal damage (in words) (rats, Table 1, 0.1% instillation for 14 days): significantly improved a corneal damage; Mean value of scores (total fluorescein staining score (upper, middle, lower cornea, each 0-3), 0.1% in PBS instilled into both eyes 6 times a day for 14 days, mean of 8 eyes, control 6.1, normal eye 2.8): 3.3
